This passage reports IC50 results from BindingDB's records for doi:10.1021/jm9705723 (Wayne State University School of Medicine, 1998).

Assay [1] can be described thus: Inhibitory concentration against human immunodeficiency virus type 1 (HIV-1 strain IIIB RT) reverse transcriptase was determined by triplicate assay at high (~1 pfu/cell) multiplicity of […] (moi).
Assay [2] is described as follows: Inhibitory concentration against human immunodeficiency virus type 1 (HIV-1 strain IIIB RT) reverse transcriptase was determined by triplicate assay at low (~0.1 pfu/cell) multiplicity of […] (moi).

For orientation: IC50 means the concentration that inhibits the measured activity by half.

Turning to `Nc1ncnc2c1ncn2/C=C1\CC1CO` (stereo unspecified) [{2-[1-(6-Amino-purin-9-yl)-meth-(E)-ylidene]-cyclopropyl}-methanol], the IC50 is above 100000 nM in assay [1] and 14000 nM in assay [2].

Compound `Nc1nc(Cl)c2ncn(/C=C3\CC3CO)c2n1` (stereo unspecified) [{2-[1-(2-Amino-6-chloro-purin-9-yl)-meth-(E)-ylidene]-cyclopropyl}-methanol] returned an IC50 in assay [2] above 100000 nM.

On to `Nc1nc2c(ncn2/C=C2/CC2CO)c(=O)[nH]1` (stereo unspecified) [2-Amino-9-[2-hydroxymethyl-cycloprop-(Z)-ylidenemethyl]-1,9-dihydro-purin-6-one], for which the IC50 was above 30000 nM in assay [1] and 1100 nM in assay [2].

`Nc1ncnc2c1ncn2/C=C1/CC1CO` (stereo unspecified) [[2-(6-Amino-purin-9-ylmethylene)-cyclopropyl]-methanol]: the values for the IC50 in assay [1] and in assay [2] were 20000 nM and 800 nM, respectively.

For the compound `Nc1nc2c(ncn2/C=C2\CC2CO)c(=O)[nH]1` (stereo unspecified) [2-Amino-9-[2-hydroxymethyl-cycloprop-(E)-ylidenemethyl]-1,9-dihydro-purin-6-one], the IC50 in assay [1] was above 30000 nM; in assay [2], 1900 nM.

As for `Cc1cn([C@H]2C[C@H](N=[N+]=[N-])[C@@H](CO)O2)c(=O)[nH]c1=O` [1-((2R,4S,5S)-4-Azido-5-hydroxymethyl-tetrahydro-furan-2-yl)-5-methyl-1H-pyrimidine-2,4-dione], the results for the IC50 in assay [1] and in assay [2] were 17 nM and 3 nM, respectively.
